Experimental data published in patent US8232289B2, “Spiropiperidine compounds as ORL-1 receptor antagonists” (Eli Lilly and Company, priority 2009, dated 2012).
Read-outs that look alike come from different tables or passages of the source.

Tests used:
Mu Opioid = Mu Opioid (Homo sapiens, UniProt P35372); test: Radioligand binding selectivity, Mu Opioid
Text: (§1) Similarly, Ki for the mu, kappa and delta opioids, serotonin, dopamine, adrenergic, mucarinic, and histamine receptors, as well as binding to the norepinephrine transporter, sodium channel, chloride channel, and calcium channel may be determined using membranes expressing the desired receptor/transporter/channels and appropriate corresponding radioligand competitor molecules.

Kappa Opioid = Kappa Opioid (Homo sapiens, UniProt P41145); test: Radioligand binding selectivity, Kappa Opioid
Sequence of Kappa Opioid (P41145 whole entry): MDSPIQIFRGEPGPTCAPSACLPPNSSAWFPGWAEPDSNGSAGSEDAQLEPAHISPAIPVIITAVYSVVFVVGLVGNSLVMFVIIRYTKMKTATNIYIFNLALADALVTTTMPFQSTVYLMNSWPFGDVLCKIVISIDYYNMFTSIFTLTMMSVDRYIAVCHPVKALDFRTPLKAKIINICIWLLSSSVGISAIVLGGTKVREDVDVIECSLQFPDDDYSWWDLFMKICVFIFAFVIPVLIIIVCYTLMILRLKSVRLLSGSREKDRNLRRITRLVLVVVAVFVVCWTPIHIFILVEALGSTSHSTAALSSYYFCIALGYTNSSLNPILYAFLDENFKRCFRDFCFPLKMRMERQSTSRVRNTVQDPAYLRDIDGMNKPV
Text: as §1

Delta Opioid = Delta Opioid (Homo sapiens, UniProt P41143); test: Radioligand binding selectivity, Delta Opioid
Sequence of Delta Opioid (P41143 whole entry): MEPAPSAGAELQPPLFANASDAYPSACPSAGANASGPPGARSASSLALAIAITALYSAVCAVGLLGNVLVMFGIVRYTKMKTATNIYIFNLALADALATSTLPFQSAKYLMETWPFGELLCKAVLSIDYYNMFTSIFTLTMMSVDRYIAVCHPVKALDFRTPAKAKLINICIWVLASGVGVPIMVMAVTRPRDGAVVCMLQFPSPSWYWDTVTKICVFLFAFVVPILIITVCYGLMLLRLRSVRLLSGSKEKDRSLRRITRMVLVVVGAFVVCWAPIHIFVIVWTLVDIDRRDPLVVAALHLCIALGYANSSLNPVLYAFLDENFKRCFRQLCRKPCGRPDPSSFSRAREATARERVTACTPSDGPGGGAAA
Text: as §1

[1] = target: T1, nociceptin/ORL1 receptors (Rattus norvegicus, UniProt P35370); test: In vivo receptor occupancy (LC/MS/MS, RO Tracer) in hypothalamus; set-up: species or system rats; details: for receptor occupancy at 3 mg/kg: rat hypothalamus, 3 mg/kg oral dose, after 6 hr.
T1 construct: from tissue; host or cells: rat hypothalamus (in vivo)
T1 sequence (P35370 whole entry): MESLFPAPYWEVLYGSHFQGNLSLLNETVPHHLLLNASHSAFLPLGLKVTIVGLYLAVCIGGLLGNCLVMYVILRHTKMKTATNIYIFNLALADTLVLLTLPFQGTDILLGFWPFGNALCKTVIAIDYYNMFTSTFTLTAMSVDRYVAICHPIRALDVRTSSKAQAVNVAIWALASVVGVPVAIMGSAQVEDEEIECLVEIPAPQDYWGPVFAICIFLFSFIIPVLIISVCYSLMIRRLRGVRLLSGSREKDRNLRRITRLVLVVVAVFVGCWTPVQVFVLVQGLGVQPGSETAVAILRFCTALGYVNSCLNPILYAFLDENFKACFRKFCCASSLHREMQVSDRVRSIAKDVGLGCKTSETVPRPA
Experimental: Receptor occupancy (RO) using LC/MS/MS has been established as a way to measure central target engagement of putative ORL-1 antagonist in vivo. Nociceptin/ORL1 receptor occupancy (RO) is measured in the hypothalamus, a structure which contains a high density of nociceptin/ORL1 binding sites that are inside the blood brain barrier, using a novel proprietary nociceptin/ORL1 antagonist RO tracer, 2-[(2-fluorophenyl)methyl]-3-(2-fluorospiro[4,5-dihydrothieno[2,3-c]pyran-7,4′-piperidine]-1′-yl)-N,N-dimethyl-propanamide, (RO Tracer). These measurements are made without the need for a radiolabeled tracer as previously published for other receptors with modifications (Chemet E, Martin L J, Li D, Need A B, Barth V N, Rash K S, Phebus L A. Use of LC/MS to assess brain tracer distribution in preclinical, in vivo receptor occupancy studies: dopamine D2, serotonin 2A and NK-1 receptors as examples. Life Sci. 78(4):340-6, 2005.). A positive correlation has been established between central nociceptin/ORL1 RO and efficacy in the modulation of the feeding behavior and forced swim test in rodents. Central nociceptin/ORL1 RO is measured at 6 or 24 hours following oral administration of the test compound to rats. Male Sprague-Dawley rats (Harlan Sprague-Dawley, Indianapolis, Ind.) are treated orally with a test compound, or vehicle (20% Captisol, 25 mM phosphate buffer, pH 2.0). At 6 or 24 hours following administration of test compound/vehicle, all animals are administered an intravenous, 3 ng/kg dose of RO Tracer. It is at the time of RO Tracer administration that RO is considered to be measured. Forty minutes after RO Tracer administration, rats are sacrificed by cervical dislocation and the hypothalamus is removed. The level of RO Tracer is measured in each tissue sample.
The centrally active literature reference standard (−)-cis-1-methyl-7-[[4-(2,6-dichlorophenyl)piperidin-1-yl]methyl]-6,7,8,9-tetrahydro-5H-benzocyclohepten-5-ol (SB612111, see Magdalena and Heisler, supra), a potent nociceptin/ORL1 receptor selective antagonist, is used as a positive control to establish the RO Tracer level associated with 100% nociceptin/ORL1 RO. […]
Hypothalamic samples are homogenized in 4 volumes (w/v) of acetonitrile containing 0.1% formic acid and centrifuged at 14,000 RPM for 16 min. […] Detection of RO Tracer is accomplished by monitoring the precursor to product ion transition with a mass to charge ratio (m/z) of 435 to 239, with levels quantified by comparison to standards prepared in brain tissue homogenates. Zero percent RO is calculated as the level of RO Tracer in the hypothalamus of vehicle-pretreated animals, which represents the sum of nonspecific and specific binding (all receptors available to the tracer). […]

[2] = target: T2, human ERG (hERG) K+ channel (Homo sapiens, UniProt Q12809); test: hERG channel [3H]astemizole binding assay
T2 construct: host or cells: HEK293 cells
T2 sequence (Q12809 whole entry): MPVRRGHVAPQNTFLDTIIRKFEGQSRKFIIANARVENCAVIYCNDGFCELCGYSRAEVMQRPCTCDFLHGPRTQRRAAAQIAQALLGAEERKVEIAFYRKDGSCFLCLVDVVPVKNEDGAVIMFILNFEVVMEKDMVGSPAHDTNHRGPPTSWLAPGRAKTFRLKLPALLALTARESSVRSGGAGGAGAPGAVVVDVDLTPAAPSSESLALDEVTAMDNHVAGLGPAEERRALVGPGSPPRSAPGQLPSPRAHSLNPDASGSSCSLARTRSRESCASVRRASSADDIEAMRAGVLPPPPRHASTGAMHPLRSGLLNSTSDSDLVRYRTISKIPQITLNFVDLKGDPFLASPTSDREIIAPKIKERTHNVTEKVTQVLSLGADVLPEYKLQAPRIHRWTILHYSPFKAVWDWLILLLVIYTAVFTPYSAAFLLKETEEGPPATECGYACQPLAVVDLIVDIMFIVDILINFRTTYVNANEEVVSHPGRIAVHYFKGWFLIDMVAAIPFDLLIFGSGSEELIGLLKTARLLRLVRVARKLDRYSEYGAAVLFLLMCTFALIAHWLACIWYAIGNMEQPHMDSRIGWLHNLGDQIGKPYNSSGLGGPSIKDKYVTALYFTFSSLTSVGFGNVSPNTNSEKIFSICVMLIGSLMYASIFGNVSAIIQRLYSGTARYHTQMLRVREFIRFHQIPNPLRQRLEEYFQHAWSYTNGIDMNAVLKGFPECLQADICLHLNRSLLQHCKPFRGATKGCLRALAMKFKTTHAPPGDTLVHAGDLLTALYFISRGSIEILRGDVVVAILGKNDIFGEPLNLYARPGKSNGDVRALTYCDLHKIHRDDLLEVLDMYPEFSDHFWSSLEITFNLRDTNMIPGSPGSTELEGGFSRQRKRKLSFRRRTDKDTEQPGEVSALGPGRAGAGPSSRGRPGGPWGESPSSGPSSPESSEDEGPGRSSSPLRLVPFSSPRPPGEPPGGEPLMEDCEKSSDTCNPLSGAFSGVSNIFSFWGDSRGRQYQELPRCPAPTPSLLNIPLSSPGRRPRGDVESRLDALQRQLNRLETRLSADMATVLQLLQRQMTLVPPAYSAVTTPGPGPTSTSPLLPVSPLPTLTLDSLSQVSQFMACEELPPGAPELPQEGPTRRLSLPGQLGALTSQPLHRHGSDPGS
Experimental: Blockade of K^+-channel conductance in the heart is associated with cardiotoxicity in the form of QT-wave prolongation. The affinity (K) of the exemplified nociceptin receptor antagonists for the human ERG (hERG) K^+ channel is determined in HEK293 cells expressing cloned hERG using the hERG channel antagonist radioligand [3H]astemizole (2 nM final assay concentration) according to well known procedures (see for example Finlayson K, et al. (Eur J Pharmacol. 412(3):203-12, 2001) [3H]Astemizole binding assays are performed at the contract research company Cerep (Paris France) according to standard procedures.

[3] = tested on: wild type and ORL knockout mice; test: Blockade of fasting-induced hyperphagia in mice; assay type: in vivo
Text: Blockade of fasting-induced hyperphagia in rodents is an accepted model for hyperphagic eating disorders. […] Mice are individually housed a minimum of 3 days prior to the onset of testing to eliminate any effects of stress due to the change from group to individual housing. Three mice/genotype are randomly assigned to each treatment group on the test day. Pre-fast body weight measurements are taken, and food is then removed from cages overnight. Mice are fasted for approximately 15 hr. The next morning, the mice are given one of three doses of drug or vehicle via oral gavage 30 min. prior to gaining access to food. Drugs are dissolved in 20% Captisol dissolved in 25 mM phosphate buffer, pH 2.0. Measurements of body weight are taken immediately prior to drug treatment or 24 hr. after access to food is restored. […] Measurements of food intake are recorded 1 hr following access to food, as indicated, by weight of food remaining at 1 hr. It should be noted that food intake measured is during the light phase, a time during which mice are typically at rest and not normally eating. Following initial testing, mice are rested for 1 week with access to unlimited chow.

[4] = wild type mice, oral gavage 30 min. prior to food, food intake at 1 hr

Sequence of Mu Opioid (P35372 whole entry): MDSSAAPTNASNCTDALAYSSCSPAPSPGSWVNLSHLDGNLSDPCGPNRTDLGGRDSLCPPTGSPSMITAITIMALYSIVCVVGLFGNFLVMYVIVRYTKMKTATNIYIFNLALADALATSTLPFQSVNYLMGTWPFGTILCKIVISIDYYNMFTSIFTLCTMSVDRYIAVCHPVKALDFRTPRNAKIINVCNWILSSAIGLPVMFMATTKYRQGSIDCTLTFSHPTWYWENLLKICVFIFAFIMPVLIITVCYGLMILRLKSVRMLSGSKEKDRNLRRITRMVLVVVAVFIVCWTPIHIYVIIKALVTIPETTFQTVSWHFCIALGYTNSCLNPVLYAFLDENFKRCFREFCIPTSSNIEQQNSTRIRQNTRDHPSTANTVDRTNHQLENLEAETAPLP

Ki (Mu Opioid; read-out: Ki Mu Opioid) | Ki (Kappa Opioid; read-out: Ki Kappa Opioid) | Ki (Delta Opioid; read-out: Ki Delta Opioid) | in vivo plasma concentration necessary to produce 80 percent RO (EC80 RO) ([1]; nociceptin/ORL1 receptors in the CNS) | SMILES | Ki (Mu Opioid) | Ki (Kappa Opioid) | Ki (Delta Opioid) | receptor occupancy at 3 mg/kg [1] | Ki [2] | effect on fasting-induced hyperphagia ([3]; ORL-1 knockout mouse strain) | effect on fasting-induced hyperphagia [3, 4] | Ki ([2]; HEK293 cells expressing cloned hERG, [3H]astemizole 2 nM, read-out: Ki hERG K+ channel)
 |  |  |  | Cc1nn(-c2ncccc2Cn2cccn2)cc1CN1CCC2(CC1)OCC(F)(F)c1cc(Cl)sc12.O=C(O)C(O)C(O)C(=O)O [Example 23, 2-Chloro-4,4-difluoro-1′-[[3-methyl-1-[3-(pyrazol-1-ylmethyl)-2-pyridyl]pyrazol-4-yl]methyl]spiro[5H-thieno[2,3-c]pyran-7,4′-piperidine] (L)-Tartrate] | > 0.451 µM | > 0.43 µM | > 0.479 µM | 80% | 1.21 µM | not observed | substantially block fasting-induced hyperphagia | 
 |  |  |  | O=C(O)C(O)C(O)C(=O)O.OCc1nn(-c2ncccc2F)cc1CN1CCC2(CC1)OCC(F)(F)c1cc(Cl)sc12 [Example 53, [4-[(2-Chloro-4,4-difluoro-spiro[5H-thieno[2,3-c]pyran-7,4′-piperidine]-1′-yl)methyl]-1-(3-fluoro-2-pyridyl)pyrazol-3-yl]methanol (L)-Tartrate] | > 0.451 µM | > 0.43 µM | > 0.479 µM | 83% | 8.6 µM | not observed | substantially block fasting-induced hyperphagia | 
> 0.451 µM | > 0.43 µM | > 0.479 µM | approximately 41 nM | Cc1nn(-c2ncccc2CO)cc1CN1CCC2(CC1)OCC(F)(F)c1cc(Cl)sc12 [Example 62, [2-[4-[(2-Chloro-4,4-difluoro-spiro[5H-thieno[2,3-c]pyran-7,4′-piperidine]-1′-yl)methyl]-3-methyl-pyrazol-1-yl]-3-pyridyl]methanol] |  |  |  | 104% |  | not observed | substantially block fasting-induced hyperphagia | 6.08 µM
